We go through one molecule from patent publication US11337971B2, “Dopamine D3 receptor selective antagonists/partial agonists and uses thereof” (THE UNITED STATES OF AMERICA, AS REPRESENTED BY THE …, priority 2018, dated 2022).

Values joined by “and” are separate entries in the source; they are usually repeats but may differ in a detail not shown here. Equal values may be shown once. “Also recorded” adds a separate entry of the source. Read-outs that look alike come from different tables or passages of the source.

For one series, the system named is Male Long-Evans rats. As to the kind of experiment: Oxycodone self-administration under progressive ratio (PR) reinforcement. Particulars: 5, 15, 25 mg/kg, i.p.
Series [1] is described as follows: Phase I metabolic stability in human liver microsomes. It is filed as in vitro ADME. On the technique in general: Liver microsomes are vesicles of endoplasmic reticulum, rich in cytochrome P450 enzymes.
Another series addresses human D4R (Homo sapiens (Human), UniProt P21917). The series can be described thus: Radioligand competition binding, [3H]N-methylspiperone, HEK293 membranes expressing human D4R. Particulars: Table 1A; μM; read-out: D4R Ki. The method in brief: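 HEK293 membranes with human D4R (20 μg protein) and 0.4 nM [3H]N-methylspiperone in EBSS with sodium metabisulfite, 1 h at room temperature, filtration read-out. Compounds 10 μM to 10 pM; nonspecific binding with 10 μM butaclamol. Ki by Cheng-Prusoff from IC50, at least three experiments.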

The target of a further series is human D3R (Homo sapiens (Human), UniProt P35462). The series can be described thus: Radioligand competition binding, [3H]N-methylspiperone, HEK293 membranes expressing human D3R. Particulars: read-out: D3R Ki ± SEM. The method in brief: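 HEK293 membranes (10 μg protein) incubated 1 h at room temperature in EBSS with 0.2 mM sodium metabisulfite, 0.4 nM [3H]N-methylspiperone and compound (10 μM to 10 pM, triplicate). Nonspecific binding defined with 10 μM butaclamol; GF/B filtration.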
(Displacement assays read how much labelled ligand stays bound in the presence of the test substance.)

Another series deals with mice. The series can be described thus: Basal locomotor activity in mice. Type of series: in vivo.

Sequence of human D3R (P35462 whole entry): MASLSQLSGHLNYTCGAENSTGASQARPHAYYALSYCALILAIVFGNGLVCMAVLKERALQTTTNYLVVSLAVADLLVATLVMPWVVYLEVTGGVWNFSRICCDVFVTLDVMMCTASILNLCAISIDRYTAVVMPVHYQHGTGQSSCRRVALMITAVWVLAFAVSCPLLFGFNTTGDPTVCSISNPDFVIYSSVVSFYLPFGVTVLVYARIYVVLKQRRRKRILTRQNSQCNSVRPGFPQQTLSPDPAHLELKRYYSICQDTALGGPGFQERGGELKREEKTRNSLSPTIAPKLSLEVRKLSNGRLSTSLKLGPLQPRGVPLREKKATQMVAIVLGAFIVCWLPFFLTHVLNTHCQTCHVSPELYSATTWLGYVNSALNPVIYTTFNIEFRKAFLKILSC
Sequence of human D4R (P21917 whole entry): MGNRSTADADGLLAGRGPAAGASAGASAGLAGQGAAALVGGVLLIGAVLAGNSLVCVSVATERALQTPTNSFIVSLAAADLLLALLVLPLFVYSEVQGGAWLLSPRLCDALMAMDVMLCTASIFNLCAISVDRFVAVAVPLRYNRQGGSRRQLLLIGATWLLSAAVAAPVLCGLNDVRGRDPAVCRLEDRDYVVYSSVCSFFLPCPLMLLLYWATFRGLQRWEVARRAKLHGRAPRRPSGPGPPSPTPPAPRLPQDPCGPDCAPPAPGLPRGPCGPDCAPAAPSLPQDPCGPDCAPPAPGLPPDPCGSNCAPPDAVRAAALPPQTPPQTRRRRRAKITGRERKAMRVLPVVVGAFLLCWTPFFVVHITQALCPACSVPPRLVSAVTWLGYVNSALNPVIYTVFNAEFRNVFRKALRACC

Consider `CCc1cc(Cl)c(OC)c(N2CCN(CC(O)CCNC(=O)c3cc4ccccc4[nH]3)CC2)c1` (racemic) [Compound 29, N-(4-(4-(3-chloro-5-ethyl-2-methoxyphenyl)piperazin-1-yl)-3-hydroxybutyl)-1H-indole-2-carboxamide], for which the “break-point for oxycodone self-administration under PR reinforcement” value in the series with Male Long-Evans rats was “significantly and dose-dependently lowers the break-point; also recorded: dose-dependently lowered the PR break-point”. Moreover, in series [1] (0 min), the “% at 0 min.” value came out at 100%. The “% at 30 min.” value in series [1] (30 min) was 89%. Further, the “% at 60 min.” value in series [1] (60 min) was determined as 73%. The Ki on human D4R is greater than 100 µM; on human D3R (Table 1B, [3H]-N-methylspiperone competition, 96-well plates), 7 nM and 6.84 nM; on human D3R (Table 1C), 7.61 ± 1.17 nM. The basal locomotor activity entry with mice is recorded as “nether significantly affected”.

In general, Ki refers to the equilibrium dissociation constant of an inhibitor or competing ligand from its target.
